These results are taken from patent US20260335398A1, “METHODS FOR TREATING PANCREATIC CANCER WITH A COMBINATION OF DES-METHYL PATEAMINE A AND A CLASS I HDAC INHIBITOR” (Baylor University, priority 2023, published 2026).

Experiment [1] has as its system PANC-1, PANC 02.13, MIA PaCa-2, Capan-1, KLM, AsPC-1 and BXPC3 cells. The experiment in a line: Cytotoxicity/cell viability with romidepsin, DMPatA and their combination in seven PDAC cell lines (FIG. 1A). Conditions: romidepsin 15 nM for 6 h, alone or with DMPatA 2 nM. Type of experiment: cell-based. The method, then:
FIG. 1A compares cytotoxicity graphs of the effect of romidepsin alone at increasing doses (circles), DMPatA alone at 2 nM (diamond), and combination of romidepsin with DMPatA at 2 nM (triangles) on PANC-1, PANC 02.13, MIA PaCa-2, Capan-1, KLM, AsPC-1 and BXPC3 cells. Romidepsin treatment in both the single agent and the combination was for 6 hours after which it was washed out and medium replaced with fresh medium without (single agent romidepsin) or with DMPatA for an additional 42 hours (combination).
This schedule of romidepsin treatment features a 6-hour exposure followed by washout of romidepsin and replacement with fresh media, whereas most investigators expose cells to 1-2 nM over 48-96 hours of continuous romidepsin. […] Thus a 6-hour exposure is more clinically relevant. Most cell types are susceptible to romidepsin over non-clinically relevant long treatment durations.
It was initially hypothesized that the HDAC-inhibitor romidepsin could cause synergistic cell death when combined with DMPatA via a reduction in MYC levels previously seen with both eIF4A inhibitors and with romidepsin in KRAS cells. […]
Cell viability was determined using CellTiter-Glo® reagent (Promega, #G7570) following the manufacturer's instructions. […] After incubation, assay reagent was added, and luminescent signals were quantified using a microplate reader (PHERAstar® FS, BMG LABTECH, Ortenberg, Germany). […]

Experiment [2] concerns cells. Conditions: 50 nM, 6-hour exposure; cited from earlier work.
The subject of experiment [3] is VGF and HBA2 loci. The experiment in a line: DRIP-qPCR R-loop accumulation at VGF and HBA2 loci (FIG. 10A). Format: cell-based. Conditions: MIA PaCa-2, 6+3 hours. The method, then:
(§1) FIG. 10A illustrates the fold increase in the percent of input values in DRIP-qPCR for the VGF, HBA2, and SNRPN loci in MIA PaCa-2 cells treated with or without the combination or single agents. Genomic DNA was treated in vitro with or without RNaseH1 before immunoprecipitation using S9.6 antibody. Treatment was for 6+3 hours (i.e., 6-hour romidepsin followed by 3-hour washout with 2 nM DMPatA (combo) or without). Statistical significance was determined by 3-way ANOVA, ***p value<0.001. This experiment confirms the formation of R-loops at the investigated gene loci.
(§2) Romidepsin-induced histone hyperacetylation leads to the accumulation of R-loops that can increase genome instability. Because treatment of cells with the combination increased global transcription and led to persistence of histone hyperacetylation, it was postulated the treatment could similarly enhance the formation of R-loops and contribute to cell death. R-loop accumulation was further confirmed using DRIP-qPCR. […]
(§3) DRIP assay was performed according to the method previously described (Sanz L A, Chédin F. High-resolution, strand-specific R-loop mapping via S9. 6-based DNA-RNA immunoprecipitation and high-throughput sequencing. Nature protocols. 2019; 14(6):1734). […] Quantitative PCR was performed at the R-loop positive loci VGF and HBA2 genes and R-loop negative locus SNRPN gene with the primers listed in Table 1.
(In general: Quantitative PCR measures a nucleic acid by following its amplification.)

The subject of experiment [4] is SNRPN locus. The experiment in a line: DRIP-qPCR R-loop accumulation at negative locus SNRPN (FIG. 10A). Particulars: MIA PaCa-2, 6+3 hours. Type of experiment: cell-based. As for the experimental part: as §1, §2, §3
Experiment [5] deals with H3K9ac. The experiment can be described thus: Immunoblot of H3K9ac protein levels (FIGS. 5A-5C, 9C). Format: cell-based. Particulars: romidepsin 15 nM 6 h; with or without DMPatA 2 nM. The method, then:
FIGS. 5A-5C are images of immunoblots of protein levels from whole cell extracts of MIA PaCa-2 cell line following treatment with representative combinations Class 1 HDAC inhibitors and DMPatA, DMPatA alone, and HDAC inhibitor alone. FIG. 5A compares immunoblots of H3K9ac (top panel) and GAPDH (bottom panel) protein levels from whole cell extracts of MIA PaCa-2 cells following treatment with the combination of romidepsin and DMPatA and single drugs. Romidepsin treatment was for 6 hours. FIG. 5B compares immunoblots of H3K9ac protein levels from whole cell extracts of MIA PaCa-2 and KLM cells untreated or following treatment with the combination of entinostat and DMPatA and single drugs. Treatments were for various timepoints ranging from 6 to 24 hours. […]
This apparent hypertranscription observed with the combination, was confirmed by the increase in nascent RNA output above the level of normal cells, following treatment for a total of 18 hours (i.e., 6-hour romidepsin followed by 12-hour washout with or without 2 nM DMPatA), quantified using incorporation of the modified RNA precursor 5-EU. […] Because HDAC inhibitors cause histone hyperacetylation and having observed the increase in gene expression following treatment with the combination, the impact of the combination on histone acetylation was assessed. […]

As for `C/C=C1\NC(=O)[C@H]2CSSCC/C=C/[C@H](CC(=O)N[C@H](C(C)C)C(=O)N2)OC(=O)[C@H](C(C)C)NC1=O` [romidepsin], the “toxicity / lethality at low concentration” value in experiment [1] is given as “minimal to no toxicity”. The “susceptibility of cells to romidepsin” value in experiment [2] was “Only a subset of cells susceptible”. Further, the “R-loop accumulation (percent of input, DRIP-qPCR)” value in experiment [3] is listed as “significant increase in the percent of input”. The “R-loop accumulation at SNRPN” value in experiment [4] is given as “no accumulation of R-loops”. For the same compound, in experiment [5], the H3K9 acetylation entry is “only a small effect”.
